How the values were obtained:
[1] = Blood ketone levels after exogenous ketone supplementation; format: in vivo, human
Description: Technical effect: raising blood ketone levels by currently known methods. FIG. 6 is a graphical illustration of exogenous ketone blood levels by three precursors using Medium Chain Triglycerides, ketone salts and ketone esters. […] In the healthy adult, blood ketone levels can be naturally raised from a 0.0 mmol/L baseline to 0.5 mmol/L while following a normal diet.
While MCT oil can raise blood ketone levels for a long duration, often the rise in ketone levels is nominal at best with a 0.5 mmol/L increase. Ketone salts can raise blood ketone levels to 1.5 mmol/L, but often do so with a metabolic load of heavy salt ingestion along with an undesired racemic mixture of both ‘D’ and ‘L’ isomers of BHB. The so called “ketone ester” synthetic products can raise blood ketone levels to 2-4 mmol/L when consumed at 30-35 g of product but the result is often short lasting.
FIG. 7 is a graphical illustration of D-BHB exogenous ketone blood levels.
(§1) FIG. 9 is a graphical illustration of blood levels of ketones and glucose resulting from the claimed invention. In the graphical illustration, body ketone levels increase from 1.4 mmol/L to 2.7 mmol/L after 50 minutes of consuming 10 g of D-BHB. […]

[2] = Blood glucose levels after D-BHB consumption; format: in vivo, human
Experimental: FIG. 9 is a graphical illustration of blood levels of ketones and glucose resulting from the claimed invention. In the graphical illustration, body ketone levels increase from 1.4 mmol/L to 2.7 mmol/L after 50 minutes of consuming 10 g of D-BHB. While ketone levels increase, glucose levels are decreased from 5.2 mmol/L to 4.8 mmol/L. While blood ketone rates can change rapidly as ketones are consumed through exercise or metabolic activity, the lowering of glucose often happens over a prolonged period of time. Consequently, this example is a good introduction to the regulatory effects of the ketone body D-BHB which are independent of and often outlast the energy benefits provided by exogenous ketones even after they are consumed by the body.
FIG. 14 is a graphical illustration of lowered blood glucose measured in mmol/L as a result of daily 10 g consumption resulting from enhanced D-BHB levels according to the claimed invention. Diet plays a key role in the onset and progression of Type II diabetes and pre-diabetic conditions. The hallmark indication of the progression of this disease is identified through measurement of blood glucose levels. […] In a preferred embodiment 10-20 g of D-BHB are consumed, but more or less can be utilized in other embodiments of the claimed invention.

[3] = Glucose/Ketone Index (GKI); format: in vivo, human
Experimental: Introducing GKI: Measuring Glucose vs Ketones. FIG. 8 is a schematic illustration of the Glucose/Ketone Index. When measuring both blood ketone levels and blood glucose levels, taking reference from the Glucose/Ketone Index (GKI) can help guide a user to achieve therapeutic benefits according to the claimed invention. The Glucose/Ketone Index is measured by dividing the blood level of glucose by the blood level of ketones measured in mmol/L. By way of illustration, a healthy individual not following the ketogenic diet could have glucose levels of 5.0 mmol/L and ketone levels of 0.1 mmol/L. According to the GKI they would have a value of greater than 9 and as such would not be in ketosis. An individual following the ketogenic diet and potentially supplementing their diet with ketone salts or MCT oil may have a glucose level of 5.6 mmol/L and ketone level of 1.3 mmol/L, resulting in a GKI of 4.3. This moderate ketosis level can be useful for managing obesity and diabetes.
as §1

[4] = Sleep cycles (deep and light sleep time) with D-BHB taken prior to sleep; format: in vivo; conditions: over several sleep cycles
Description: During deep sleep, a variety of functions take place in the mind and body. During deep sleep not only does physical recovery occur. The brain recuperates as well during which memories are consolidated and learning and emotions are processed. Physiologically, blood sugar levels and metabolism balance out and the immune system is energized. FIG. 11 is a graphical illustration of improved sleep time resulting from enhanced D-BHB levels according to the claimed invention based on the data detailed in Table 1.
The data gathered in Table 1 reflects unaided sleep cycles in bold together with sleep aided by 10-20 g D-BHB which is reflective of a preferred embodiment of the claimed invention. On average, unaided sleep results in approximately 1.5 hours of deep sleep in an eight hour sleep cycle. […] In a preferred and foreseen embodiment of the claimed invention, improved deep sleep is achieved as a result of exogenous ketone D-BHB supplementation.

[5] = Systolic and diastolic blood pressure after D-BHB ingestion; format: in vivo; conditions: 10 g; measurable within an hour, remains several hours
Description: FIG. 12 is a graphical illustration of improved blood pressure resulting from enhanced D-BHB levels according to the claimed invention. In addition to increasing blood ketones and lowering blood glucose, consumption of exogenous D-BHB according to the claimed invention also has a direct and measurable impact on lowering blood pressure. […] Blood pressure reduction is measurable within an hour of ingestion and is positive effects of lower blood pressure remain for several hours afterwards.

[6] = Blood oxygen levels before and after D-BHB; format: in vivo; conditions: 30 minutes after 10 g; from 80%
Description: FIG. 13 is a graphical illustration of enhanced blood oxygen resulting from enhanced D-BHB levels according to the claimed invention.

[7] = Sensation of hunger after waking; format: in vivo; conditions: several hours after rising in the morning
Description: FIG. 15 is a graphical illustration of lowered hunger resulting from enhanced D-BHB levels according to the claimed invention. While the sensation of hunger itself arises from a complex interplay of glucose, insulin and the hormone ghrelin, identification and measurement of hunger is easy and straightforward according to the claimed invention. Hunger is often a key reason why diet attempts such as attempting to follow the ketogenic diet or other diets fail. Hunger is also a significant impediment to individuals attempting to undergo a fasting state for health or other purposes. While even consuming a moderate amount such as 5 g of exogenous natural D-BHB ketone supplement can reduce the sensation of hunger, regular consumption of larger amounts such as 10 g-20 g represent a preferred embodiment of the claimed invention. […] Hunger reduction, however, is provided at any time of day according to the claimed invention and is not just morning dependent.

[8] = Physical endurance on a measured exercise course; format: in vivo
Description: FIG. 16 is a graphical illustration of improved physical endurance resulting from enhanced D-BHB levels according to the claimed invention. While understanding of the mechanism of ketone enhancement of physical endurance is only beginning, there is a direct and measurable benefit of consumption of natural D-Beta HydroxyButyric acid to enhance physical exertion and post-exercise activity recovery. FIG. 16 illustrates the physical performance parameter in which a subject with and without natural D-BHB ketone supplementation is impeded by shortness of breath and muscle pain and drop in performance owing to lactic acid build-up in the body. Without natural D-BHB ketone supplementation on a measured exercise course pain and fatigue will occur after 27 minutes. […] While preferred consumption of natural D-BHB can range from 10 g-30 g of natural D-BHB, lesser or greater amounts may also be safely consumed for exercise improvement and benefits.

[9] = Anti-depression and anti-anxiety mood enhancement; format: in vivo; conditions: in the absence of anti-depressant and/or anti-anxiety medication; at least 10 g at least twice per day
Description: FIG. 18 is a graphical illustration of improved mental anti-depression and anti-anxiety activity resulting from enhanced D-BHB levels according to the claimed invention. […] While preferred consumption of natural D-BHB can range from 10 g-30 g of natural D-BHB, a best illustrative example reflects at least 10 g exogenous D-BHB supplementation at least twice per day.

[10] = Bone density measurements during D-BHB consumption; format: in vivo; conditions: 10 g daily; period during which bone loss was expected
Description: FIG. 20 is a graphical illustration of sustained bone protection resulting from enhanced D-BHB levels according to the claimed invention. Loss of bone density can be statistically predicted and measured during specific time of life events such as post-menopause as well as during space missions for astronauts in space. […] Similar benefits against bone loss for space based applications are indicated and expected with consumption of 20 g of exogenous D-BHB daily.

[11] = Gout pain and inflammation; format: in vivo
Description: FIG. 21 is a graphical illustration of gout reduction resulting from enhanced D-BHB levels according to the claimed invention. Owing to the role of exogenous natural D-BHB as a regulatory element of the NLRP3 inflammasome, inflammations are reduced as a direct result of exogenous D-BHB supplementation. In a preferred embodiment, 10 g or more of D-Beta HydroxyButyric acid is consumed daily to reduce gout flare-ups.

[12] = tested on: HDAC; conditions: cited from earlier work
[13] = consumed at 30-35 g of product; short lasting; cited from earlier work
[14] = 750 mg/kg by gavage 24 hours after 0.5 or 6 Gy radiation; cited from earlier work

Q: Which results are given for `CC(O)CC(=O)O` [D-BHB, D-Beta-HydroxyButyric Acid]?
A: body ketone level ([1]; 50 minutes after consuming 10 g, from 1.4 mmol/L): 2.7 mmol/L; blood ketone levels versus existing methods ([1]; consumption of 10-30 g): higher blood ketone levels; glucose level ([2]; after consuming 10 g, from 5.2 mmol/L): 4.8 mmol/L; blood glucose level ([2]; daily 10 g consumption, baseline over 7 mmol/L): ≤ 4 mmol/L; Glucose/Ketone Index (GKI) ([3]; after consuming 10 g): 1.8; GKI levels ([3]; regular D-BHB consumption): 1-3; extension of deep sleep [4]: extended by over an hour; systolic and diastolic blood pressure [5]: measurable decrease; blood oxygen level [6]: 99%; sensation of hunger [7]: greater reduction to even omission of hunger sensations; post-workout recovery time [8]: markedly reduced; range of performance before pain and fatigue ([8]; 27 minutes without supplementation): 44 min; cognitive mood enhancement [9]: cognitive improvement; bone density [10]: bone density health and retention; gout pain ([11]; 15 g, in three days): from extreme to very moderate; gout inflammation ([11]; continued daily consumption, in less than one week): entirely removed gout inflammation

Q: For `CC(O)CC(=O)[O-].[Na+]` (centres unmarked) [b-OHB], which renal dysfunction ([12]; IR-injured kidney) is on record?
A: The renal dysfunction was “ameliorated renal dysfunction”.

Q: What about the “HDAC activity in the IR-injured kidney” value [12] of the same compound?
A: The value was “inhibited HDAC activity”.

Q: For `C[C@@H](O)CCOC(=O)C[C@@H](C)O` [ketone ester, (R)-3-hydroxybutyl (R)-3-hydroxybutyrate], which “blood ketone levels raised to” value [13] is on record?
A: The value was 2 to 4 mmol/L.

Q: And the “radiation-induced decrease of reticulocyte/erythrocyte ratio in bone marrow” value [14]?
A: The value was “significantly attenuated”.

— US20210322350A1, “EXOGENOUS KETONE SUPPLEMENTATION COMPOSITIONS, SYSTEMS AND METHODS” (Ketone Clarity LLC, priority 2020, published 2021)
